Assay results as given in patent publication US20260285850A1, “SUBSTITUTED OXAZOLIDINONES AND IMIDAZOLINONES AS HERBICIDES” (FMC CORPORATION, priority 2023, published 2026).

Experiments:
Assay type in all cases: in vivo
[1] = test system: barnyardgrass (Echinochloa crusgalli); assay: Test B flooded paddy test, visual plant response rating 0-100; conditions: 250 g ai/ha, Flood, applied to paddy water, evaluated after 13 days
How it was run: (§1)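 Visual scores versus untreated controls were recorded 13 days after treatment of greenhouse-held plants. At the 2-leaf stage, pots were flooded 3 cm above the soil surface and compounds added straight to the water.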

rice (Oryza sativa) = assay: as above; conditions: 250 g ai/ha, Flood, applied to paddy water, evaluated after 13 days
How it was run: as §1

[2] = test system: sedge, umbrella (small-flower umbrella sedge, Cyperus difformis); assay: as above; conditions: 250 g ai/ha, Flood, applied to paddy water, evaluated after 13 days
How it was run: as §1

[3] = test system: ducksalad (Heteranthera limosa); assay: as above; conditions: 250 g ai/ha, Flood, applied to paddy water, evaluated after 13 days
How it was run: as §1

[4] = test system: green foxtail (Setaria viridis); assay: Test A preemergence soil spray, visual injury rating 0-100; conditions: 10 days
How it was run: (§2)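 Visual injury ratings (0, no effect; 100, complete control) were assigned relative to untreated plants 10 days after treatment. Test chemicals, formulated with a surfactant-containing non-phytotoxic solvent, were applied in loam-sand soil either as a directed soil spray before emergence or to emerged plants, and plants were kept in a greenhouse.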

kochia (Bassia scoparia) [5] = assay: as above; conditions: 10 days
How it was run: as §2

[6] = test system: wheat (Triticum aestivum); assay: as above; conditions: 10 days
How it was run: as §2

[7] = test system: blackgrass (Alopecurus myosuroides); assay: as above; conditions: 10 days
How it was run: as §2

[8] = test system: ragweed (common ragweed, Ambrosia artemisiifolia); assay: as above; conditions: 10 days
How it was run: as §2

[9] = test system: palmer (palmer amaranth, palmer pigweed, Amaranthus palmeri); assay: as above; conditions: 10 days
How it was run: as §2

[10] = test system: ryegrass, Italian (italian ryegrass, Lolium multiflorum); assay: as above; conditions: 10 days
How it was run: as §2

soybean (Glycine max) [11] = assay: as above; conditions: 10 days
How it was run: as §2

corn (Zea mays) [12] = assay: as above; conditions: 10 days
How it was run: as §2

[13] = test system: barnyardgrass (Echinochloa crus-galli); assay: as above; conditions: 10 days
How it was run: as §2

[14] = test system: oat, wild (wild oat, Avena fatua); assay: as above; conditions: 10 days
How it was run: as §2

[15] = test system: green foxtail (Setaria viridis); assay: Test A postemergence application, visual injury rating 0-100
How it was run: as §2

[16] = test system: horseweed (Erigeron canadensis); assay: as above
How it was run: as §2

kochia (Bassia scoparia) [17] = assay: as above
How it was run: as §2

[18] = test system: wheat (Triticum aestivum); assay: as above
How it was run: as §2

[19] = test system: blackgrass (Alopecurus myosuroides); assay: as above
How it was run: as §2

[20] = test system: ragweed (common ragweed, Ambrosia artemisiifolia); assay: as above
How it was run: as §2

[21] = test system: palmer (palmer amaranth, palmer pigweed, Amaranthus palmeri); assay: as above
How it was run: as §2

[22] = test system: galium (catchweed bedstraw, Galium aparine); assay: as above
How it was run: as §2

[23] = test system: ryegrass, Italian (italian ryegrass, Lolium multiflorum); assay: as above
How it was run: as §2

soybean (Glycine max) [24] = assay: as above
How it was run: as §2

corn (Zea mays) [25] = assay: as above
How it was run: as §2

[26] = test system: barnyardgrass (Echinochloa crus-galli); assay: as above
How it was run: as §2

[27] = test system: oat, wild (wild oat, Avena fatua); assay: as above
How it was run: as §2

[28] = 62 g ai/ha, 0 = no effect, 100 = complete control
[29] = 62 g ai/ha, postemergence, 10 days, 0 = no effect, 100 = complete control
[30] = Postemergence, 16 g ai/ha, greenhouse 10 days, 0 no effect, 100 complete control

Compound: C=CC1(C(=O)NC2CC(C(=O)OC)C2)CN(c2cc(F)cc(F)c2)C(=O)O1 (stereo not shown) [Compound 172]
- Plant response rating, Barnyardgrass (0 to 100 scale, 0 is no effect and 100 is complete control) [1]: 95
- Plant response rating, Rice (0 to 100 scale, 0 is no effect and 100 is complete control) (rice (Oryza sativa)): 70
- Plant response rating, Sedge, Umbrella (0 to 100 scale, 0 is no effect and 100 is complete control) [2]: 100
- Plant response rating, Ducksalad (0 to 100 scale, 0 is no effect and 100 is complete control) [3]: 80
- Foxtail, Green plant response rating ([4]; 16 g ai/ha, 0 to 100 scale): 40
- Foxtail, Green plant response rating (0-100) [4, 28]: 100
- Kochia plant response rating (kochia (Bassia scoparia) [5]; 16 g ai/ha, 0 to 100 scale): 0
- Kochia plant response rating (0-100) (kochia (Bassia scoparia) [5]; [28]): 100
- Wheat plant response rating ([6]; 16 g ai/ha, 0 to 100 scale): 90
- Wheat plant response rating (0-100) [6, 28]: 100
- Blackgrass plant response rating ([7]; 16 g ai/ha, 0 to 100 scale): 50
- Blackgrass plant response rating (0-100) [7, 28]: 90
- Ragweed plant response rating ([8]; 16 g ai/ha, 0 to 100 scale): 0
- Ragweed plant response rating (0-100) [8, 28]: 0
- Pigweed, Palmer plant response rating ([9]; 16 g ai/ha, 0 to 100 scale): 10
- Pigweed, Palmer plant response rating (0-100) [9, 28]: 60
- Ryegrass, Italian plant response rating ([10]; 16 g ai/ha, 0 to 100 scale): 40
- Ryegrass, Italian plant response rating (0-100) [10, 28]: 90
- Soybean plant response rating (soybean (Glycine max) [11]; 16 g ai/ha, 0 to 100 scale): 0
- Soybean plant response rating (0-100) (soybean (Glycine max) [11]; [28]): 70
- Corn plant response rating (corn (Zea mays) [12]; 16 g ai/ha, 0 to 100 scale): 80
- Corn plant response rating (0-100) (corn (Zea mays) [12]; [28]): 90
- Barnyardgrass plant response rating ([13]; 16 g ai/ha, 0 to 100 scale): 0
- Barnyardgrass plant response rating (0-100) [13, 28]: 90
- Oat, Wild plant response rating ([14]; 16 g ai/ha, 0 to 100 scale): 30
- Oat, Wild plant response rating (0-100) [14, 28]: 90
- Foxtail, Green plant response rating (0-100) [15, 29]: 90
- Foxtail, Green plant response rating (0 to 100 scale) [15, 30]: 80
- Horseweed plant response rating (0-100) [16, 29]: 10
- Horseweed plant response rating (0 to 100 scale) [16, 30]: 0
- Kochia plant response rating (0-100) (kochia (Bassia scoparia) [17]; [29]): 90
- Kochia plant response rating (0 to 100 scale) (kochia (Bassia scoparia) [17]; [30]): 90
- Wheat plant response rating (0-100) [18, 29]: 90
- Wheat plant response rating (0 to 100 scale) [18, 30]: 90
- Blackgrass plant response rating (0-100) [19, 29]: 90
- Blackgrass plant response rating (0 to 100 scale) [19, 30]: 90
- Ragweed plant response rating (0-100) [20, 29]: 20
- Ragweed plant response rating (0 to 100 scale) [20, 30]: 10
- Pigweed, Palmer plant response rating (0-100) [21, 29]: 60
- Pigweed, Palmer plant response rating (0 to 100 scale) [21, 30]: 10
- Galium plant response rating (0-100) [22, 29]: 90
- Galium plant response rating (0 to 100 scale) [22, 30]: 90
- Ryegrass, Italian plant response rating (0-100) [23, 29]: 90
- Ryegrass, Italian plant response rating (0 to 100 scale) [23, 30]: 80
- Soybean plant response rating (0-100) (soybean (Glycine max) [24]; [29]): 80
- Soybean plant response rating (0 to 100 scale) (soybean (Glycine max) [24]; [30]): 80
- Corn plant response rating (0-100) (corn (Zea mays) [25]; [29]): 100
- Corn plant response rating (0 to 100 scale) (corn (Zea mays) [25]; [30]): 100
- Barnyardgrass plant response rating (0-100) [26, 29]: 90
- Barnyardgrass plant response rating (0 to 100 scale) [26, 30]: 80
- Oat, Wild plant response rating (0-100) [27, 29]: 90
- Oat, Wild plant response rating (0 to 100 scale) [27, 30]: 90
